The source of these data is ChEMBL document CHEMBL5137008, “Recent advances of antitumor shikonin/alkannin derivatives: A comprehensive overview focusing on structural classification, synthetic approaches, and mechanisms of action” (Eur J Med Chem, 2022).

Molecules are shown by their SMILES. Converted amounts (≈) assume the structure as drawn.

The subject of data set [1] is Ca9-22. The experiment in a line: Cytotoxicity against human Ca9-22 cells assessed as reduction in cell viability incubated for 24 hrs by MTT assay. The data set is classed as functional, cell-based. Conditions: Ca9-22, 24 h.
The test system of data set [2] is Ca9-22. The experiment in a line: Cytotoxicity against human Ca9-22 cells assessed as reduction in cell viability incubated for 48 hrs by MTT assay. The data set is classed as functional, cell-based. To be noted: Ca9-22, 48 h. A general note: Formazan colour is commonly taken as a measure of viable cells.
Data set [3] deals with A549. The experiment in a line: Anticancer activity against human A549 cells assessed as inhibition of cell growth incubated for 72 hrs by MTT assay. The data set is classed as functional, cell-based. To be noted: A549, 72 h.
A short description of data set [4]: Anticancer activity against human A875 cells assessed as inhibition of cell growth incubated for 72 hrs by MTT assay. The data set is classed as functional, cell-based. To be noted: A875, 72 h.
Another data set has as its system SW872. The experiment in a line: Anticancer activity against human SW872 cells assessed as inhibition of cell growth incubated for 72 hrs by MTT assay. The data set is classed as functional, cell-based. Conditions: SW872, 72 h.
Data set [5] has as its system A549. The experiment in a line: Anticancer activity against human A549 cells. The data set is classed as functional. Conditions: read-out: ED50 (the source's name).
The next data set deals with L1210. The experiment in a line: Anticancer activity against mouse L1210 cells. The data set is classed as functional. Conditions: read-out: ED50 (the source's name).
A further data set concerns Sarcoma-180. The experiment in a line: Antitumor activity against mouse Sarcoma-180 cells xenografted in ip dosed ICR mouse assessed as tumor growth inhibition rate administered daily for 7 days relative to control. The data set is classed as functional. Conditions: time 7 day.
In data set [6] the test system is HepG2. The experiment in a line: Antiproliferative activity against human HepG2 cells assessed as reduction in cell viability incubated for 24 hrs by MTT assay. Conditions: HepG2, 24 h. The data set is classed as functional, cell-based.
Data set [7] has as its system A549. The experiment in a line: Antiproliferative activity against human A549 cells assessed as reduction in cell viability incubated for 24 hrs by MTT assay. The data set is classed as functional, cell-based. Conditions: A549, 24 h.
A short description of data set [8]: Cytotoxicity against human L02 cells assessed as reduction in cell viability incubated for 24 hrs by MTT assay. The data set is classed as toxicity, cell-based.
Data set [9] deals with HeLa. The experiment in a line: Antiproliferative activity against human HeLa cells assessed as reduction in cell viability incubated for 24 hrs by MTT assay. The data set is classed as functional, cell-based.
A further data set deals with HCT-15. The experiment in a line: Anticancer activity against human HCT-15 cells incubated for 72 hrs by MTT assay. The data set is classed as functional, cell-based. To be noted: HCT-15, 72 h.
In data set [10] the test system is MGC-803. The experiment in a line: Anticancer activity against human MGC-803 cells incubated for 72 hrs by MTT assay. The data set is classed as functional, cell-based. To be noted: MGC-803, 72 h.
Data set [11] concerns MCF7. The experiment in a line: Anticancer activity against human MCF7 cells incubated for 72 hrs by MTT assay. The data set is classed as functional, cell-based. Conditions: MCF7, 72 h.
In another data set the test system is Fibroblast. The experiment in a line: Cytotoxicity against human skin fibroblast cells incubated for 72 hrs by MTT assay. The data set is classed as functional, cell-based.
The test system of data set [12] is HeLa. The experiment in a line: cells. Conditions: Homo sapiens, 24 h.
The nature of data set [13]: Anticancer activity against human A875 cells assessed as inhibition of cell growth incubated for 24 hrs by MTT assay. The data set is classed as functional, cell-based. Conditions: A875, 24 h.
Data set [14] relates to HepG2. The experiment in a line: Anticancer activity against human HepG2 cells assessed as inhibition of cell growth incubated for 24 hrs by MTT assay. The data set is classed as functional, cell-based. To be noted: HepG2, 24 h.
A short description of data set [15]: Cytotoxicity against human L02 cells assessed as inhibition of cell growth incubated for 24 hrs by MTT assay. The data set is classed as toxicity, cell-based.
A short description of data set [16]: Antitubulin activity against bovine brain tubulin polymerization preincubated with compound followed by GTP addition by turbidimetry-based spectrophotometric method. Details: species or system Bos taurus.
Data set [17] relates to A549. The experiment in a line: Anticancer activity against human A549 cells assessed as inhibition of cell proliferation incubated for 72 hrs by SRB assay. To be noted: A549, 72 h. The data set is classed as functional, cell-based. In general terms: The SRB assay estimates cell density from bound dye.
The next data set deals with MOLT-4. The experiment in a line: Anticancer activity against human MOLT-4 cells assessed as inhibition of cell proliferation incubated for 72 hrs by SRB assay. Conditions: MOLT-4, 72 h. The data set is classed as functional, cell-based.
In a further data set the test system is SJRH30. The experiment in a line: Anticancer activity against human Rh30 cells assessed as inhibition of cell proliferation incubated for 72 hrs by SRB assay. The data set is classed as functional, cell-based. Conditions: SJRH30, 72 h.
The next data set deals with SMMC-7721. The experiment in a line: Anticancer activity against human SMMC-7721 cells incubated for 48 hrs by MTT assay. The data set is classed as functional, cell-based. To be noted: SMMC-7721, 48 h.
Data set [18] concerns MGC-803. The experiment in a line: Anticancer activity against human MGC-803 cells incubated for 48 hrs by MTT assay. The data set is classed as functional, cell-based. Conditions: MGC-803, 48 h.
A short description of data set [19]: Cytotoxicity against human L02 cells incubated for 48 hrs by MTT assay. The data set is classed as toxicity, cell-based.
The test system of a further data set is SGC-7901. The experiment in a line: Anticancer activity against human SGC-7901 cells incubated for 48 hrs by MTT assay. The data set is classed as functional, cell-based. To be noted: SGC-7901, 48 h.
The test system of a further data set is MDA-MB-231. The experiment in a line: Antiproliferative activity against human MDA-MB-231 cells assessed as inhibition of cell growth incubated for 24 hrs by MTT assay. The data set is classed as functional, cell-based. To be noted: MDA-MB-231, 24 h.
In data set [20] the test system is A549. The experiment in a line: Antiproliferative activity against human A549 cells assessed as inhibition of cell growth incubated for 24 hrs by MTT assay. The data set is classed as functional, cell-based. To be noted: A549, 24 h.
The next data set deals with U-87 MG. The experiment in a line: Anticancer activity against human U87 cells incubated for 48 hrs by MTT assay. The data set is classed as functional, cell-based, U-87MG ATCC.
Data set [21] deals with HeLa. The experiment in a line: Antiproliferative activity against human HeLa cells assessed as inhibition of cell growth incubated for 24 hrs by MTT assay. The data set is classed as functional, cell-based.
For data set [22], the system named is A549. The experiment in a line: Antiproliferative activity against human A549 cells assessed as inhibition of cell proliferation incubated for 20 hrs by MTT assay. The data set is classed as functional, cell-based. To be noted: A549, 20 h.
Data set [23] is described as follows: Antiproliferative activity against human BGC cells assessed as inhibition of cell proliferation incubated for 20 hrs by MTT assay. The data set is classed as functional, cell-based.
The subject of another data set is L02. The experiment in a line: Antiproliferative activity against human L02 cells assessed as inhibition of cell proliferation incubated for 20 hrs by MTT assay. The data set is classed as functional, cell-based. Conditions: L02, 20 h.
Data set [24] relates to MCF7. The experiment in a line: Antiproliferative activity against human MCF7 cells assessed as inhibition of cell proliferation incubated for 20 hrs by MTT assay. Conditions: MCF7, 20 h. The data set is classed as functional, cell-based.
For data set [25], the system named is HepG2. The experiment in a line: Antiproliferative activity against human HepG2 cells assessed as inhibition of cell proliferation incubated for 20 hrs by MTT assay. The data set is classed as functional, cell-based. Conditions: HepG2, 20 h.
Data set [26] has as its system HeLa. The experiment in a line: Antiproliferative activity against human HeLa cells assessed as inhibition of cell proliferation incubated for 20 hrs by MTT assay. The data set is classed as functional, cell-based.

Usually IC50 stands for the concentration that gives 50% inhibition. On to `CC(C)=CC[C@@H](OC(=O)C(C)C)C1=CC(=O)c2c(O)ccc(O)c2C1=O` [ISOBUTYLSHIKONIN], for which the IC50 in the data set with Ca9-22 [1] is 1980 nM; in the data set on Ca9-22 [2] it was 1800 nM.
Consider `CC(C)=CC[C@@H](OC(=O)/C=C/c1ccc(F)c(F)c1)C1=CC(=O)c2c(O)ccc(O)c2C1=O`, for which the IC50 was found to be 2100 nM in the data set on A549 [3], 550 nM in data set [4] and 360 nM in the data set with SW872.
Broadly, the T/C is the result in the treated group divided by that in the control group, in per cent. Take `CO/N=C/c1cc(O)c2c(c1O)C(=O)C=CC2=O`: the EC50 was over 10 µg/mL in the data set with A549 [5] and 0.109 µg/mL (≈ 0.441 µM) in the data set with L1210. In the data set with Sarcoma-180, the T/C stood at 318%.
In the case of `CC(C)=CC[C@@H](OC(=O)C1CC1)C1=CC(=O)c2c(O)ccc(O)c2C1=O`, the IC50 in the data set on HepG2 [6] was 759 nM; with A549 [7], 3.73 µM; in the data set on HeLa [9], 3.47 µM. The IC50 at 24 h in data set [8] was over 100 µM.
On to `O=c1[nH]cc(F)c(=O)[nH]1` [FLUOROURACIL], for which the IC50 in the data set on HCT-15 is 8.24 µM; in the data set on MGC-803 [10], over 50 µM; with MCF7 [11], 29.5 µM; with Fibroblast, over 50 µM.
As to `CC(C)=CC[C@@H](OC(=O)CCCOc1ccc(Cl)cc1C)C1=CC(=O)c2c(O)ccc(O)c2C1=O`, the concentration for half-maximal inhibition (IC50) with HeLa [12] was 4.44 µM; in data set [13], 1520 nM; with HepG2 [14], 430 nM; in data set [16], 16.9 µM. For the same compound, in data set [15], the IC50 at 24 h is over 100 µM.
With `CC(C)=CC[C@@H](OC(=O)c1ccco1)C1=CC(=O)c2c(O)ccc(O)c2C1=O`, the IC50 turned out to be 460 nM with A549 [17], 300 nM with MOLT-4 and 470 nM in the data set on SJRH30.
As to `COc1cccc2c1C(=O)c1c(O)c3c(c(O)c1C2=O)C[C@@](O)(C(=O)CO)C[C@@H]3O[C@H]1C[C@H](N)[C@H](O)[C@H](C)O1` [DOXORUBICIN], the IC50 amounted to 460 nM in the data set on SMMC-7721; 480 nM in the data set with MGC-803 [18]; 720 nM in the data set on SGC-7901; 4.21 µM in the data set on MDA-MB-231; 5.13 µM in the data set on A549 [20]; 570 nM with U-87 MG. Also, the IC50 in the data set on HeLa [21] was determined as 4.61 µM. The compound also displayed an IC50 at 48 h in data set [19] of over 100 µM.
`CCCO/N=C/c1cc(O)c2c(c1O)C(=O)C=CC2=O`: the EC50 in the data set on A549 [5] was over 10 µg/mL; in the data set on L1210 it was 0.107 µg/mL (≈ 0.389 µM). In the data set on Sarcoma-180, the T/C worked out at 229%.
In the case of `CC(C)=CC[C@@H](OC(=O)[C@@H](C)N1C(=O)c2ccccc2C1=O)C1=CC(=O)c2c(O)ccc(O)c2C1=O`, the IC50 with A549 [22] is over 100 µM; in data set [23] it was 13.3 µM; in the data set with L02, over 100 µM; in the data set on MCF7 [24], 2550 nM; in the data set with HepG2 [25], 5.35 µM; in the data set with HeLa [26] it was 1930 nM.
